Results: patent publication US4117146A, “Method for treating depression and anxiety using phenyl hydrazo compounds” (The Dow Chemical Company, priority 1977, dated 1978)
Where two headings read alike, the source gives them in different places.

Experiments:
[1] = test system: reserpine-induced depression; assay: protection from reserpine-induced depression (ptosis) in mice; assay type: in vivo; conditions: for ED50: Mus musculus, 0.75 h; for antidepressant activity (in words): mean effective dose not calculated for the compounds of b45-b48
Protocol: Separate groups of mice of the same origin and past history (5 mice per group) were administered 2-(2-(2-chlorophenyl)hydrazino)-4,5-dihydro-1H-imidazole monohydrochloride in an aqueous carrier. Different groups were administered the compound by intraperitoneal injection at various dosage rates. Thirty minutes after the administration of the test compound, the mice were administered reserpine at a dosage rate of 2.5 milligrams per kilogram by intraperitoneal injection. Separate groups of similar mice were similarly administered 2.5 milligrams of reserpine per kilogram 30 minutes after administration of various dosages of the known antidepressant. The mice were then observed for 45 minutes for symptoms of reserpine-induced depression.
Protection from reserpine-induced depression is indicated by the absence of the characteristic ptosis.
The results were employed to calculate the dose effective to protect 50 percent of the mice (ED50) by classical, statistical procedures.
The procedure of Example 1 was repeated using oral administration of 2-(2-(2-chlorophenyl)hydrazino)-4,5-dihydro-1H-imidazole monohydrochloride instead of intraperitoneal injection.
Using the general procedure outlined above, the ED50 's were calculated for other compounds showing antidepressant properties. These compounds are represented by the general formula [drawing 2]

[2] = intraperitoneal acute 50 percent lethal dose; conditions: mouse, in vivo, ip
[3] = Table I, oral, read-out: ORAL ED50
[4] = ip, Table I, intraperitoneal, read-out: Intraperitoneal ED50

Row | Structure (SMILES) | ED50 ([1]; oral administration, reserpine 2.5 mg/kg i.p., read-out: oral ED50) [mg/kg] | ED50 ([1]; ip, intraperitoneal, 30 minutes before reserpine 2.5 mg/kg i.p., read-out: ED50 (dose effective to protect 50 percent of the mice)) [mg/kg] | antidepressant activity (in words) [1] | LD50 [2] [mg/kg] | ED50 [1, 3] [mg/kg] | ED50 [1, 4] [mg/kg]
1 | Cl.Clc1ccccc1NNC1=NCCN1 [Example 1, 2-(2-(2-chlorophenyl)hydrazino)-4,5-dihydro-1H-imidazole monohydrochloride] | 2 | < 10 | particularly active as antidepressants | 167 |  | 
2 | Fc1ccccc1NNC1=NCCN1.I [Example 3, 2-((2-fluorophenyl)hydrazino)-4,5-dihydro-1H-imidazole monohydriodide] |  |  | particularly active as antidepressants |  | 1 | < 10
3 | CN1CCN=C1NNc1ccccc1F [Example 4] |  |  |  |  | 27 | 37
4 | Fc1ccccc1NNC1=NCCCN1 [Example 5] |  |  |  |  | 43 | 37
5 | CN1CCN=C1NNc1ccc(Cl)cc1Cl [Example 6] |  |  |  |  |  | 43
